Here are results for 1 molecule from PMC9030691, “Toxicokinetics of β-Amanitin in Mice and In Vitro Drug–Drug Interaction Potential” (Pharmaceutics, 2022).

Data set [1] in a line: Urinary and fecal excretion in mice. The format is in vivo, male ICR mice. The note with it: male mice, LC-HRMS, mean ± SD; for dose excreted: ICR, mouse. The protocol: β-amanitin in water was administered by iv bolus injection into the tail vein at 0.8 mg/kg dose (n = 4) and by oral gavage at 10 mg/kg dose (n = 3) to male mice. Mice were returned to metabolic cages, and urine and feces samples were collected individually at 0–6, 6–12, 12–24, 24–36, and 36–48 h. Urine and feces samples were stored at −80 °C until the analysis.
Each tissue and feces sample was homogenized in water (1:3, w/v). In total, 50 μL aliquots of urine, tissue homogenates, or feces homogenates were mixed with 150 μL of 4′-hydroxydiclofenac solution (IS, 5 ng/mL in methanol). The other steps were as described for plasma sample preparation.

Data set [2] has as its target T1, CYP2C8 (Homo sapiens, UniProt P10632).
T1 construct: enzyme activities in HLMs were evaluated using LC-MS/MS and CYP substrates; from tissue; host or cells: ultrapooled human liver microsomes
T1 sequence (P10632 1-490): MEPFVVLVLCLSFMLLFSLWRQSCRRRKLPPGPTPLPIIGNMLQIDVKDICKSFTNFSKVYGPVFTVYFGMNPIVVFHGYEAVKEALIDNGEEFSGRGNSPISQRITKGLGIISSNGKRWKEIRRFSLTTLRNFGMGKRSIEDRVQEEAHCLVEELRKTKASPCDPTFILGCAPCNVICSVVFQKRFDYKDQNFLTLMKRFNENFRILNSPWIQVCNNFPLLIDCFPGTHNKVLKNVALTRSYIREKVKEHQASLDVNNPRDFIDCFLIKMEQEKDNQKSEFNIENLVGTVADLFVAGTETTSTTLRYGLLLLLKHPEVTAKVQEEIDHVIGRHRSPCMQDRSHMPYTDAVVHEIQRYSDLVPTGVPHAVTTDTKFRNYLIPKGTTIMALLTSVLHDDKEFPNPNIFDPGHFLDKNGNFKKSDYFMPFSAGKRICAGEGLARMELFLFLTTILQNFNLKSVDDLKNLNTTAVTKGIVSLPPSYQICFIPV
Put plainly: CYP2C8 inhibition in human liver microsomes. The class given is in vitro ADME. Conditions: ultrapooled human liver microsomes 0.2 mg/mL, 2 μM amodiaquine, β-amanitin 0.1–100 μM, pH 7.4, 37 °C, 15 min, LC-MS/MS, n = 3, read-out: IC50, CYP2C8 amodiaquine N-deethylase. Here is the method: β-amanitin inhibition (IC50 values) of CYP1A2, CYP2A6, CYP2B6, CYP2C8, CYP2C9, CYP2C19, CYP2D6, and CYP3A4 enzyme activities in HLMs were evaluated using LC-MS/MS and CYP substrates as previously described. Each incubation mixture was made up to a volume of 100 μL including HLMs (0.2 mg/mL), 50 mM potassium phosphate buffer (pH 7.4), 1.0 mM NADPH, 10 mM magnesium chloride, various concentrations of β-amanitin (0.1–100 μM), a cocktail of seven CYP probe substrates (50 μM phenacetin for CYP1A2, 2.5 μM coumarin for CYP2A6, 2 μM amodiaquine for CYP2C8, 10 μM diclofenac for CYP2C9, 100 μM [S]-mephenytoin for CYP2C19, 5 μM bufuralol for CYP2D6, and 2.5 μM midazolam for CYP3A4 in acetonitrile), or 50 μM bupropion for CYP2B6. The reactions were initiated with NADPH followed by incubation in a shaking water bath at 37 °C for 15 min with or without 30 min preincubation with NADPH. Reactions were stopped with 50 μL of ice-cold methanol containing ^13C2, ^15N-acetaminophen and d9-1′-hydroxybufuralol (ISs). Incubation mixtures were centrifuged at 13,000× g for 8 min at 4 °C. An aliquot (5 μL) of the supernatant from the reaction mixture was analyzed by the previous LC-MS/MS method.

The subject of data set [3] is HEK293 control cells. Kind of data set: Uptake of amanitins into HEK293 control cells. The format is in vitro ADME. The note with it: 50 μM amanitin, 5 min, 37 °C, HBSS, LC-HRMS, n = 3. The protocol:
HEK293 cells overexpressing OCT2, MATE2-K, OAT1, OAT3, OATP1B1, and OATP1B3 transporters and HEK293-control cells were maintained in a humidified atmosphere of 5% CO2 at 37 °C in DMEM supplemented with 10% FBS and 5 mM non-essential amino acids. In the case of HEK293-OATP1B1, -OATP1B3, and MATE2-K cells, 2 mM sodium butyrate was added to the culture medium to enhance transport activity. Cells were seeded at 2 × 10^5 cells/well in poly-D-lysine-coated 24-well plates. After 24 h, the growth medium was discarded, and attached cells were washed with HBSS and preincubated for 20 min in HBSS at 37 °C. Stock solutions of α- and β-amanitin and representative inhibitors of transporters were diluted in HBSS to make the final concentration: cimetidine 1 mM (for OCT2), cimetidine 100 μM (for MATE2-K), probenecid 100 μM (for OAT1 and OAT3), and rifampin 100 μM (for OATP1B1 and OATP1B3). Uptake of 50 μM α- and β-amanitin was measured in the absence and presence of representative inhibitors for 5 min at 37 °C. Plates were placed immediately on ice, and cells were then washed twice with 1 mL of ice-cold HBSS. Residual HBSS was removed thoroughly from the plates. Subsequently, 150 μL of 80% methanol containing IS was added to each sample well, and the cell plates were shaken gently for 20 min at 4 °C. The remaining steps were the same as described for plasma sample preparation.

For data set [4] the following is noted: LC-HRMS, cited from earlier work. Here is the method: Concentrations of β-amanitin in biological samples were evaluated following our previous methodology. The standard calibration curves for β-amanitin in mouse plasma ranged from 0.5 to 500 ng/mL and were linear, with a correlation coefficient of 0.9952. The inter- and intra-day accuracy and precision fell within the acceptance criteria (3.1–14.6% of coefficients of variation (CVs) and 92.5–115.0% of accuracy). The extraction recovery and matrix effect of this analytical method were 82.8–88.9% and 93.0–98.6%. Three freeze–thaw cycles (88.7–97.2% accuracy with CVs of 3.6–14.3%), short-term ...

The structures appear in SMILES notation. Read-outs that look alike come from different tables or passages of the source. Some results are limits rather than exact numbers.

Consider `CC[C@H](C)[C@@H]1NC(=O)CNC(=O)[C@@H]2Cc3c([nH]c4cc(O)ccc34)[S@+]([O-])C[C@H](NC(=O)CNC1=O)C(=O)N[C@@H](CC(=O)O)C(=O)N1C[C@H](O)C[C@H]1C(=O)N[C@@H]([C@@H](C)[C@@H](O)CO)C(=O)N2` [β-amanitin], for which the dose excreted is 52.3 ± 19.8% in data set [1] (iv bolus 0.8 mg/kg, metabolic cages, urine 0–48 h, n = 4, read-out: Total urinary recovery (parent form) after 48 h); 72.4 ± 24.7% in data set [1] (oral gavage 10 mg/kg, feces 0–48 h, n = 3, read-out: Cumulative fecal excretion for 48 h); 2.4 ± 1.2% in data set [1] (oral gavage 10 mg/kg, urine 0–48 h, n = 3, read-out: Cumulative urinary excretion for 48 h). Moreover, the “Total fecal recovery over 48 h” value in data set [1] (iv bolus 0.8 mg/kg, feces 0–48 h, n = 4) is on record as 7.6% ± 1.2. In addition, in data set [1] (iv bolus 0.8 mg/kg, urine 0–6 h, n = 4), the “Urinary recovery within 6 h” value was 40.9% ± 27.6. The concentration for half-maximal inhibition (IC50) in data set [2] (with 30 min NADPH preincubation) and in data set [2] (without NADPH preincubation) was more than 100 µM throughout. The “Uptake into HEK293 control cells, β- versus α-amanitin” value in data set [3] is recorded as “greater than α-amanitin”. Also, the “Stability, short-term storage for 2 h on ice (accuracy)” value in data set [4] (mouse plasma, CVs of 3.6–7.4%) is on record as 94.7–97.9%. Moreover, in data set [4] (mouse plasma, CVs of 3.6–14.3%), the “Stability, three freeze–thaw cycles (accuracy)” value is reported as 88.7–97.2%. In addition, the “Stability, long-term storage for 2 weeks at −80 °C (accuracy)” value in data set [4] (mouse plasma, CVs of 3.7–9.1%) is listed as 90.4–105.0%. Moreover, the “Post-preparation stability for 24 h in 4 °C autosampler (accuracy)” value in data set [4] (processed mouse plasma samples, CVs of 6.8–7.5%) is 90.7–94.1%.
